Data published in US6821751B2, “Hypoxia responsive transcription enhancer element from yeast” (The Brigham and Women's Hospital, Inc., priority 2001, dated 2004).

Legend:
[1] = tested on: OLE1 mRNA; assay: Northern blot analysis of OLE1 mRNA; assay type: cell-based, S. cerevisiae; settings: for levels of OLE1 mRNA after transition metal in normoxia: increasing concentrations
Method: (§1) Yeast cells containing lacZ fusion plasmids were grown at 30° C. on uracil dropout medium containing dextrose (Treco, et al., In Current Protocols in Molecular Biology, Ausubel, et al., eds., pp. 13.2.1-13.2.12, John Wiley & Sons, New York (1997)). For unsaturated fatty acid repression analysis, yeast were grown in medium supplemented with 1% tergitol as described previously (Choi, et al., J. Biol. Chem. 271:3581-3589 (1996)). Cells were grown in the presence of UFAs for 6 hours prior to the β-galactosidase assays. Plasmid amplifications and bacterial transformations were performed using Escherichia coli strain DH5 (Invitrogene Corp.). Yeast transformations were performed by the method of Elble (BioTechniques 13:18-20 (1992)). Preparative cultures were grown aerobically in a shaker at 200 rpm (Innova 4000 incubator shaker, New Brunswick Scientific. NJ) at 30° C. to mid-logarithmic phase. For experiments assessing yeast under hypoxic conditions, mid-logarithmic phase preparative cultures were used to inoculate special air-tight flasks with inlet and outlet ports to allow for equilibration with the appropriate gas mixtures. Cultures were exposed to a continuous flow of hydrated medical grade nitrogen (BOC Gases, MA), unless otherwise specified, for 6 hours after inoculating the medium via the inlet port. Of note, medical grade nitrogen is contaminated with trace amounts of O2 (less than 1%). The percentage of saturated O2 in each flask was confirmed by using an oxygen monitor (G. C. Industries, Inc.) attached to the outlet port of each culture. […] Growth was monitored by measuring the yeast OD600 at the completion of each experiment.
(§2) Total yeast RNA was isolated as described previously (Collart, et al., In Current Protocols in Molecular Biology, Ausubel, et al., pp. 13.12.1-13.12.5, John Wiley & Sons, New York (1997)). Equal amounts (15 μg) of total RNA were analyzed by Northern blots according to standard procedures for separation of RNA using 1% formaldehyde gels (Collart, et al., In Current Protocols in Molecular Biology, Ausubel, et al., eds, pp. 13.12.1-13.12.5, John Wiley & Sons, New York (1997)). […] Northern blots were quantified using a phosphorimager (Molecular Dynamics) and autoradiographs were also prepared on X-OMAT AR film (Kodak, NY).
For the detection of OLE1 mRNA, a radiolabeled DNA probe was made using a 0.5 kb EcoRI fragment from the OLE1 protein coding sequence. […] The purified DNA fragments were labeled to high specific activity with [^32P]dCTP by the random primer extension method using Ready to Go DNA labeling beads (Amersham Pharmaceutical Biotech) reaction kit. […] Specific activity of labeled probes was determined by liquid scintillation counting.

[2] = tested on: LORE-basal CYC1 promoter-lacZ; assay: microbe, parasite or virus in culture; assay type: cell-based, S. cerevisiae
Method: The construction of several of the OLE1 promoter-lacZ fusion deletion series has been described previously (Choi, et al., J. Biol. Chem. 271:3581-3589 (1996)). Construction of pAM6, pAM7, pAM10 and pAM16 vectors containing the OLE1 low oxygen response element (LORE) sequences −347 to −328 relative to the ATG translational start codon with the A of the codon designated as +1) was performed by inserting the synthetic paired oligonucleotides (10-5′ and 10-3′) into the XhoI restriction site of pTBA30, the CYC1 basal promoter-lacZ fusion vector. pAM16 contains one LORE copy in the −347 to −328 forward or (+) orientation 5′ to the basal CYC1 promoter-lacZ fusion. pAM7 has one LORE copy in the −328 to −347 reverse or (+) orientation. pAM6 contains a tandem repeat of the LORE in the (+) orientation. pAM10 was generated by inserting the synthetic paired oligonucleotides (yd-19 and yd-20) into the XhoI restriction site of pTBA30. The LORE in this plasmid has three mutations. Plasmid pAM4 is the p62::934 derivative with three nucleotide substitutions in the LORE region (-C342T, -T341A and -A339G) prepared utilizing three step PCR with oligonucleotides containing site-directed mutations. Two PCR reactions with appropriate pairs of mutant primers (PCR1 : yd-8 and yd-20 and PCR2: yd-19 and lacZ-3′) and Taq DNA polymerase were carried out as recommended by Roche Molecular Biochemicals (IN) in 100 μl reactions, using 1 ng of p62::934 as a template in a PTC-100 thermal cycler for 30 cycles (1 min at 94° C., 1 min at 55° C., 1 min at 72° C.), followed by 7 min at 72° C. The PCR products were purified from a 1.0% agarose gel using a Qiaex DNA extraction kit (Qiagen, Calif.). Then, PCR products 1 and 2 were annealed and amplified as above with primer yd-8 and lacZ-3′. The resulting PCR products were purified as above and digested with restriction enzymes HindIII and SalI. Finally this PCR product was cloned into HindIII and SalI pretreated p62::934 plasmid to generate pAM4. All the constructs were verified by DNA sequencing. […]

[3] = tested on: SUT1; assay: Northern blot analysis of SUT1 expression; assay type: cell-based, S. cerevisiae
Method: (§3) Yeast cells containing lacZ fusion plasmids were grown at 30° C. on uracil dropout medium containing dextrose (Treco, et al., In Current Protocols in Molecular Biology, Ausubel, et al., eds., pp. 13.2.1-13.2.12, John Wiley & Sons, New York (1997)). For unsaturated fatty acid repression analysis, yeast were grown in medium supplemented with 1% tergitol as described previously (Choi, et al., J. Biol. Chem. 271:3581-3589 (1996)). Cells were grown in the presence of UFAs for 6 hours prior to the β-galactosidase assays. Plasmid amplifications and bacterial transformations were performed using Escherichia coli strain DH5 (Invitrogene Corp.). […] Growth was monitored by measuring the yeast OD600 at the completion of each experiment.
as §2, with “NY). […]” for “NY).”

[4] = tested on: TRX2 mRNA; assay: Northern blot analysis of TRX2 mRNA; assay type: cell-based, S. cerevisiae
Method: as §3
as §2, with “NY). […]” for “NY).”

[5] = tested on: ANB1; assay: Expression of anaerobic yeast gene ANB1; assay type: cell-based, S. cerevisiae
[6] = tested on: OLE1 promoter-lacZ fusion; assay: β-galactosidase assay of OLE1 promoter-lacZ fusion reporter (p62::934 and pAM4); assay type: cell-based, S. cerevisiae
Method: The construction of several of the OLE1 promoter-lacZ fusion deletion series has been described previously (Choi, et al., J. Biol. Chem. 271:3581-3589 (1996)). Construction of pAM6, pAM7, pAM10 and pAM16 vectors containing the OLE1 low oxygen response element (LORE) sequences −347 to −328 relative to the ATG translational start codon with the A of the codon designated as +1) was performed by inserting the synthetic paired oligonucleotides (10-5′ and 10-3′) into the XhoI restriction site of pTBA30, the CYC1 basal promoter-lacZ fusion vector. pAM16 contains one LORE copy in the −347 to −328 forward or (+) orientation 5′ to the basal CYC1 promoter-lacZ fusion. pAM7 has one LORE copy in the −328 to −347 reverse or (+) orientation. pAM6 contains a tandem repeat of the LORE in the (+) orientation. pAM10 was generated by inserting the synthetic paired oligonucleotides (yd-19 and yd-20) into the XhoI restriction site of pTBA30. The LORE in this plasmid has three mutations. Plasmid pAM4 is the p62::934 derivative with three nucleotide substitutions in the LORE region (-C342T, -T341A and -A339G) prepared utilizing three step PCR with oligonucleotides containing site-directed mutations. Two PCR reactions with appropriate pairs of mutant primers (PCR1 : yd-8 and yd-20 and PCR2: yd-19 and lacZ-3′) and Taq DNA polymerase were carried out as recommended by Roche Molecular Biochemicals (IN) in 100 μl reactions, using 1 ng of p62::934 as a template in a PTC-100 thermal cycler for 30 cycles (1 min at 94° C., 1 min at 55° C., 1 min at 72° C.), followed by 7 min at 72° C. The PCR products were purified from a 1.0% agarose gel using a Qiaex DNA extraction kit (Qiagen, Calif.). Then, PCR products 1 and 2 were annealed and amplified as above with primer yd-8 and lacZ-3′. The resulting PCR products were purified as above and digested with restriction enzymes HindIII and SalI. Finally this PCR product was cloned into HindIII and SalI pretreated p62::934 plasmid to generate pAM4. All the constructs were verified by DNA sequencing. The promoter deletion constructs were transformed into wild-type strain RZ53-6 for subsequent β-galactosidase assays.
Yeast cells containing lacZ fusion plasmids were grown at 30° C. on uracil dropout medium containing dextrose (Treco, et al., In Current Protocols in Molecular Biology, Ausubel, et al., eds., pp. 13.2.1-13.2.12, John Wiley & Sons, New York (1997)). For unsaturated fatty acid repression analysis, yeast were grown in medium supplemented with 1% tergitol as described previously (Choi, et al., J. Biol. Chem. 271:3581-3589 (1996)). Cells were grown in the presence of UFAs for 6 hours prior to the β-galactosidase assays. Plasmid amplifications and bacterial transformations were performed using Escherichia coli strain DH5 (Invitrogene Corp.). […]

[7] = tested on: ATF1; assay: Northern blot analysis of ATF1 mRNA; assay type: cell-based, S. cerevisiae
Method: as §3
as §2, with “NY). […]” for “NY).”

[8] = tested on: S. cerevisiae; assay type: cell-based; settings: any of the concentrations tested
Method: as §1, with “mixtures.” for “mixtures. Cultures were exposed to a continuous flow of hydrated medical grade nitrogen (BOC Gases, MA), unless otherwise specified, for 6 hours after inoculating the medium via the inlet port. Of note, medical grade nitrogen is contaminated with trace amounts of O2 (less than 1%). The percentage of saturated O2 in each flask was confirmed by using an oxygen monitor (G. C. Industries, Inc.) attached to the outlet port of each culture.”

[9] = tested on: LORE binding factor(s); assay: Electrophoretic mobility shift assay (EMSA) with crude yeast extracts; set-up: species or system S. cerevisiae
Method: Haploid yeast (S. cerevisiae, strain RZ53-6 ) were cultured in 1-liter flasks containing 200 ml of YPD (1% yeast extract, 2% peptone, 2% dextrose) either under normoxic or hypoxic conditions, harvested at midlog phase (OD600=0.8), and lysed by vortexing with glass beads according to published protocols (Pfeifer, et al., Cell 49:9-18 (1987)). Following addition of ammonium sulfate to 40% and incubation on a rocker table at 4° C. for 30 minutes, the precipitate was collected by centrifugation at 14,000 rpm in a microfuge at 4° C. for 10 minutes. The pellet was resuspended in storage buffer (20 mM HEPES, pH8.0; 5 mM EDTA; 20% (v/v) glycerol; 1 mM PMSF; 7 mM β-mercaptoethanol) and stored frozen at −80° C. The soluble protein concentration was determined using a Bradford dye binding assay (BioRad, CA).
EMSAs were performed essentially as described by Carey (Carey, Methods Enzymol. 208:103-117 (1991)) utilizing synthetic paired oligonucleotides (e.g., 10-5′ and 10-3′) as a probe or a probe containing the LORE sequence made by PCR using p62::934 as the template with ^32P-labeled oligonucleotides 1-5′ and yd-10 (−397 to −234) as the primers. […] The concentration of each probe was determined on an ethidium bromide stained agarose-mini gel (Maniatis, et al., Molecular Cloning: A Laboratory Manual, Cold Spring Harbor Laboratory Press, Cold Spring Harbor, N.Y. (1982)). […]

## [Cl][Ni][Cl] [NiCl2, nickel chloride]
[1]
  levels of OLE1 mRNA after transition metal in normoxia: increased levels

## [Cl][Co][Cl] [CoCl2, cobalt chloride]
[2]; plasmid pAM6
  increase of reporter gene expression under cobalt-treated conditions: ~10 fold
[3]
  induction of SUT1 expression by cobalt: no significant induction
[4]
  cobalt induction of TRX2 mRNA: ~2.5 fold
[5]
  expression of ANB1 with cobalt: not upregulated
[6]; reporter p62::934, strain RZ53-6 Δrox1
  induction of reporter under cobalt-treated conditions in ROX1 deletion strain: 5.1 fold increase
[6]; reporter pAM4 (mutated LORE)
  CoCl2 dependent induction by reporter assay: not affected
[7]
  induction of ATF1 by cobalt treatment: induced
[1]
  levels of OLE1 mRNA after transition metal in normoxia: increased levels

## c1cnc2c(c1)ccc1cccnc12 [1,10 Ph, 1,10-phenanthroline]
[6]; 6 hours of incubation, 2-8 μg/ml
  gene expression after incubation with chelator: substantially increase
[6]; exposure for six hours
  expression of OLE1 by OLE1 promoter-lacZ reporter: dose dependent increase
[8]
  cell growth: unaffected
[1]; exposure for six hours
  expression of OLE1 by Northern blot: dose dependent increase

## #8: paired oligonucleotides -387 to -368 of OLE1 promoter (SEQ ID NO:44/45) (chain 1 AGGTCTCTTCGCATAGTCG; chain 2 CGACTATGCGAAGAGAACCT; chemistry not given here)
[9]; crude extracts from hypoxia and cobalt treated yeast
  hypoxia- or CoCl2-induced complex formation with end-labeled probe: No specific hypoxia- or CoCl2-induced complex formation

## CCCCC/C=C\C/C=C\CCCCCCCC(=O)O [linoleic acid]
[2]; Saccharomyces cerevisiae, reporter pAM6 (two copies of LORE in tandem), UFA for 6 hours, read-out: IC50 of inhibition of lacZ reporter plasmid pAM6 expression
  IC50: ~20 µM
[2]; normoxia-, hypoxia- and cobalt-induced expression, pAM6
  repression / dose-response inhibition of lacZ reporter pAM6 expression: strongly repress
[9]; crude extracts from L.A.-treated yeast
  hypoxia-induced LORE complex formation (B1): significantly suppressed
[1]; Northern blot
  OLE1 mRNA level after unsaturated fatty acid: dramatically repressed
